Series [1] can be described thus: in vivo. To be noted: rat, po, 1 mg/kg.
A short description of series [2]: in vivo. To be noted: rat, 1 mg/kg.
The nature of series [3]: in vivo. To be noted: rat, 1 mg/kg. This is another data set of the same source.
Series [4] can be described thus: in vivo. The settings on record: rat, 1 mg/kg. The source holds these as a separate data set.

Turning to `Cc1nc2ccccc2n1[C@H]1C[C@H]2CC[C@@H](C1)N2CCC1(c2ccccc2)CCN(C(C(=O)O)c2ccccc2)CC1` (some centres not stated), the bioavailability in “in vivo [1]” was 0%. In addition, in “in vivo [2]”, the clearance was 117 mL/min/kg. Besides, in the series “in vivo [3]”, the Vd amounted to 3.5 L/kg.

`CNC(=O)C(c1ccc(F)cc1)N1CCC(CCN2[C@@H]3CC[C@H]2C[C@@H](n2c(C)nc4ccccc42)C3)(c2cccc(F)c2)CC1` (some centres not stated) had a half-life in the series “in vivo [4]” of 366 min. This compound displayed a bioavailability in “in vivo [1]” of 37%. This compound registered a clearance in the series “in vivo [2]” of 43 mL/min/kg. Moreover, the Vd in the series “in vivo [3]” was determined as 16.5 L/kg.

For the origin of these results see ChEMBL document CHEMBL1153314, “[2-(4-Phenyl-4-piperidinyl)ethyl]amine based CCR5 antagonists: derivatizations at the N-terminal of the piperidine ring” (Bioorg Med Chem Lett, 2009).
